Where two headings read alike, the source gives them in different places.
Molecular target: human PDHK2 (hPDHK2) (Homo sapiens (Human), UniProt Q15119)
Assay: Inhibitory action of PDHK activity in vitro (kinase reaction, residual PDH activity measured)
Assay type: biochemical
[1] = PDHK inhibitory activity (class symbol)
[2] = read-out: PDHK inhibitory activity IC50
[3] = read-out: PDHK inhibitory activity (class symbol)

OCCCCOc1cc(CO)c2c(c1)C(O)(C(F)(F)F)c1ccccc1-2 (centres unmarked) [compound 611]
IC50 [1]: 100 to 1000 nM | IC50 [2]: 329 nM

NC(=O)c1cc(OCCN2CCCOC2=O)cc2c1-c1ccccc1C2(O)C(F)(F)F (centres unmarked) [compound 612]
IC50 [1]: < 100 nM | IC50 [2]: 47 nM

O=C(O)CCCOc1cc(-c2cnco2)c2c(c1)C(O)(C(F)(F)F)c1ccccc1-2 (centres unmarked) [compound 613]
IC50 [1]: < 100 nM | IC50 [2]: 76 nM

OCCn1cc(-c2cc(CO)c3c(c2)C(O)(C(F)(F)F)c2ccccc2-3)cn1 (centres unmarked) [compound 615]
IC50 [1]: 100 to 1000 nM | IC50 [2]: 105 nM

COC(=O)c1cc(Cl)cc2c1-c1ccccc1C2(O)C(F)(F)F (centres unmarked) [compound 616]
IC50 [1]: 100 to 1000 nM | IC50 [2]: 192 nM

CCn1cc(-c2cc(CO)c3c(c2)C(O)(C(F)(F)F)c2ccccc2-3)cn1 (centres unmarked) [compound 618]
IC50 [1]: < 100 nM | IC50 [2]: 56 nM

OCCn1cc(-c2cc(CO)cc3c2-c2ccccc2C3(O)C(F)(F)F)cn1 (centres unmarked) [compound 620]
IC50 [1]: < 100 nM | IC50 [2]: 65 nM

CC(C)n1cc(-c2cc(CO)c3c(c2)C(O)(C(F)(F)F)c2ccccc2-3)cn1 (centres unmarked) [compound 621]
IC50 [1]: < 100 nM | IC50 [2]: 65 nM

Cn1cc(-c2cc(OCC(CO)CO)cc3c2-c2ccccc2C3(O)C(F)(F)F)cn1 (centres unmarked) [compound 622]
IC50 [1]: < 100 nM | IC50 [2]: 33 nM

O=C(O)CCCn1cc(-c2cc(CO)cc3c2-c2ccccc2C3(O)C(F)(F)F)cn1 (centres unmarked) [compound 623]
IC50 [1]: 100 to 1000 nM | IC50 [2]: 133 nM

N#CCc1cc(Cl)cc2c1-c1ccccc1C2(O)C(F)(F)F (centres unmarked) [compound 625]
IC50 [3]: > 1000 nM | IC50 [2]: > 1000 nM

COc1cc(C(N)=O)c2c(c1)C(O)(C(F)(F)F)c1ccccc1-2 (centres unmarked) [compound 626]
IC50 [1]: 100 to 1000 nM | IC50 [2]: 674 nM

COc1cc(CO)c2c(c1)C(O)(C(F)(F)F)c1ccccc1-2 (centres unmarked) [compound 627]
IC50 [3]: > 1000 nM | IC50 [2]: > 1000 nM

Cn1cc(-c2cc(OC(CO)CO)cc3c2-c2ccccc2C3(O)C(F)(F)F)cn1 (centres unmarked) [compound 628]
IC50 [1]: < 100 nM | IC50 [2]: 58 nM

CC(C)Cc1cc(-c2cnn(CCO)c2)c2c(c1)C(O)(C(F)(F)F)c1ccccc1-2 (centres unmarked) [compound 631]
IC50 [1]: < 100 nM | IC50 [2]: 62 nM

C#Cc1cc(C(N)=O)c2c(c1)C(O)(C(F)(F)F)c1ccccc1-2 (centres unmarked) [compound 632]
IC50 [1]: 100 to 1000 nM | IC50 [2]: 195 nM

CCc1cc(C(N)=O)c2c(c1)C(O)(C(F)(F)F)c1ccccc1-2 (centres unmarked) [compound 633]
IC50 [1]: 100 to 1000 nM | IC50 [2]: 560 nM

CC[Si](CC)(CC)CCc1cc(C(N)=O)c2c(c1)C(O)(C(F)(F)F)c1ccccc1-2 (centres unmarked) [compound 634]
IC50 [1]: 100 to 1000 nM | IC50 [2]: 100 nM

OCc1cc(Cl)cc2c1-c1ccccc1C2(O)C(F)(F)F (centres unmarked) [compound 635]
IC50 [1]: 100 to 1000 nM | IC50 [2]: 515 nM

NC(=O)c1cc(Cl)cc2c1-c1ccccc1C2(O)C(F)(F)F (centres unmarked) [compound 636]
IC50 [1]: 100 to 1000 nM | IC50 [2]: 239 nM

Cn1cc(-c2cc(CC(N)=O)c3c(c2)C(O)(C(F)(F)F)c2ccccc2-3)cn1 (centres unmarked) [compound 637]
IC50 [3]: > 1000 nM | IC50 [2]: > 1000 nM

CC(C)(C)n1cc(-c2cc(CO)c3c(c2)C(O)(C(F)(F)F)c2ccccc2-3)cn1 (centres unmarked) [compound 638]
IC50 [1]: 100 to 1000 nM | IC50 [2]: 127 nM

CC(C)(C)n1cc(-c2cc(C(N)=O)c3c(c2)C(O)(C(F)(F)F)c2ccccc2-3)cn1 (centres unmarked) [compound 639]
IC50 [1]: < 100 nM | IC50 [2]: 63 nM

NC(=O)c1cc(OCCO)cc2c1-c1ccccc1C2(O)C(F)(F)F (centres unmarked) [compound 640]
IC50 [1]: 100 to 1000 nM | IC50 [2]: 732 nM

C#Cc1cc(CO)c2c(c1)C(O)(C(F)(F)F)c1ccccc1-2 (centres unmarked) [compound 641]
IC50 [1]: 100 to 1000 nM | IC50 [2]: 510 nM

CCc1cc(CO)c2c(c1)C(O)(C(F)(F)F)c1ccccc1-2 (centres unmarked) [compound 642]
IC50 [3]: > 1000 nM | IC50 [2]: > 1000 nM

Cn1cc(-c2cc(CCO)c3c(c2)C(O)(C(F)(F)F)c2ccccc2-3)cn1 (centres unmarked) [compound 643]
IC50 [1]: 100 to 1000 nM | IC50 [2]: 184 nM

O=C(c1cc(CO)c2c(c1)C(O)(C(F)(F)F)c1ccccc1-2)N1CC(O)C1 (centres unmarked) [compound 644]
IC50 [1]: 100 to 1000 nM | IC50 [2]: 130 nM

CC(C)Cn1cc(-c2cc(C(N)=O)c3c(c2)C(O)(C(F)(F)F)c2ccccc2-3)cn1 (centres unmarked) [compound 645]
IC50 [1]: < 100 nM | IC50 [2]: 37 nM

CC(C)(C)Cn1cc(-c2cc(C(N)=O)c3c(c2)C(O)(C(F)(F)F)c2ccccc2-3)cn1 (centres unmarked) [compound 646]
IC50 [1]: < 100 nM | IC50 [2]: 40 nM

CC(C)Cc1cc(-c2cnn(C(CO)CO)c2)c2c(c1)C(O)(C(F)(F)F)c1ccccc1-2 (centres unmarked) [compound 648]
IC50 [1]: < 100 nM | IC50 [2]: 44 nM

CC(C)Cn1cc(-c2cc(CO)c3c(c2)C(O)(C(F)(F)F)c2ccccc2-3)cn1 (centres unmarked) [compound 649]
IC50 [1]: < 100 nM | IC50 [2]: 37 nM

CC(C)(C)Cn1cc(-c2cc(CO)c3c(c2)C(O)(C(F)(F)F)c2ccccc2-3)cn1 (centres unmarked) [compound 650]
IC50 [1]: < 100 nM | IC50 [2]: 36 nM

C/C=C/c1cc(-c2cnn(C(CO)CO)c2)c2c(c1)C(O)(C(F)(F)F)c1ccccc1-2 (centres unmarked) [compound 651]
IC50 [1]: < 100 nM | IC50 [2]: 25 nM
